Assays:
Assay in all cases: biochemical
Parameters in all cases: DiscoveRx KINOMEscan competition binding, percent of DMSO control signal at 100 nM
Conditions in all cases: read-out: Fig. 4a / Percent Control / Compound 1; percent of DMSO control, competition binding
BRAF(V600E) = BRAF(V600E) (Homo sapiens, UniProt P15056, V600E)
Procedure: (§1) The kinase selectivity profile was performed by using the DiscoveRx KINOMEscan platform. […] Test compounds were prepared as 40× stocks in 100% DMSO and directly diluted into the assay. The results were defined as a percentage of signal between the negative (DMSO, 100% control) and the positive (control compound, 0% control) control, which was calculated as follows: percent control = [(test compound signal − positive control signal)/(negative control signal − positive control signal)] × 100.

p38-alpha = molecular target: T1, p38-alpha (Homo sapiens, UniProt Q16539)
T1 construct: gene MAPK14
Procedure: as §1

CDC2L1 = molecular target: T2, CDC2L1 (Homo sapiens, UniProt P21127)
T2 construct: gene CDK11B
Procedure: as §1

MAP4K4 = MAP4K4 (Homo sapiens, UniProt O95819)
Procedure: as §1

CDK7 = CDK7 (Homo sapiens, UniProt P50613)
Procedure: as §1

BRK = molecular target: T3, BRK (Homo sapiens, UniProt Q13882)
T3 construct: gene PTK6
Procedure: as §1

MEK6 = molecular target: T4, MEK6 (Homo sapiens, UniProt P52564)
T4 construct: gene MAP2K6
Procedure: as §1

PRKCE = PRKCE (Homo sapiens, UniProt Q02156)
Procedure: as §1

FGFR1 = FGFR1 (Homo sapiens, UniProt P11362)
Procedure: as §1

WNK1 = WNK1 (Homo sapiens, UniProt Q9H4A3)
Procedure: as §1

OSR1 = molecular target: T5, OSR1 (Homo sapiens, UniProt O95747)
T5 construct: gene OXSR1
Procedure: as §1

WNK3 = WNK3 (Homo sapiens, UniProt Q9BYP7)
Procedure: as §1

STK16 = STK16 (Homo sapiens, UniProt O75716)
Procedure: as §1

AKT3 = AKT3 (Homo sapiens, UniProt Q9Y243)
Procedure: as §1

MLK3 = molecular target: T6, MLK3 (Homo sapiens, UniProt Q16584)
T6 construct: gene MAP3K11
Procedure: as §1

NDR2 = molecular target: T7, NDR2 (Homo sapiens, UniProt Q9Y2H1)
T7 construct: gene STK38L
Procedure: as §1

FAK = molecular target: T8, FAK (Homo sapiens, UniProt Q05397)
T8 construct: gene PTK2
Procedure: as §1

NEK4 = NEK4 (Homo sapiens, UniProt P51957)
Procedure: as §1

CDK11 = molecular target: T9, CDK11 (Homo sapiens, UniProt Q9BWU1)
T9 construct: gene CDK19
Procedure: as §1

PIM2 = PIM2 (Homo sapiens, UniProt Q9P1W9)
Procedure: as §1

TBK1 = TBK1 (Homo sapiens, UniProt Q9UHD2)
Procedure: as §1

AXL = AXL (Homo sapiens, UniProt P30530)
Procedure: as §1

CDKL5 = CDKL5 (Homo sapiens, UniProt O76039)
Procedure: as §1

LATS2 = LATS2 (Homo sapiens, UniProt Q9NRM7)
Procedure: as §1

NEK2 = NEK2 (Homo sapiens, UniProt P51955)
Procedure: as §1
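Note: KINOMEscan kinase panel binding assay, signal normalized between DMSO as 100% and a positive control compound as 0%.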

Chain of AXL (P30530 whole entry): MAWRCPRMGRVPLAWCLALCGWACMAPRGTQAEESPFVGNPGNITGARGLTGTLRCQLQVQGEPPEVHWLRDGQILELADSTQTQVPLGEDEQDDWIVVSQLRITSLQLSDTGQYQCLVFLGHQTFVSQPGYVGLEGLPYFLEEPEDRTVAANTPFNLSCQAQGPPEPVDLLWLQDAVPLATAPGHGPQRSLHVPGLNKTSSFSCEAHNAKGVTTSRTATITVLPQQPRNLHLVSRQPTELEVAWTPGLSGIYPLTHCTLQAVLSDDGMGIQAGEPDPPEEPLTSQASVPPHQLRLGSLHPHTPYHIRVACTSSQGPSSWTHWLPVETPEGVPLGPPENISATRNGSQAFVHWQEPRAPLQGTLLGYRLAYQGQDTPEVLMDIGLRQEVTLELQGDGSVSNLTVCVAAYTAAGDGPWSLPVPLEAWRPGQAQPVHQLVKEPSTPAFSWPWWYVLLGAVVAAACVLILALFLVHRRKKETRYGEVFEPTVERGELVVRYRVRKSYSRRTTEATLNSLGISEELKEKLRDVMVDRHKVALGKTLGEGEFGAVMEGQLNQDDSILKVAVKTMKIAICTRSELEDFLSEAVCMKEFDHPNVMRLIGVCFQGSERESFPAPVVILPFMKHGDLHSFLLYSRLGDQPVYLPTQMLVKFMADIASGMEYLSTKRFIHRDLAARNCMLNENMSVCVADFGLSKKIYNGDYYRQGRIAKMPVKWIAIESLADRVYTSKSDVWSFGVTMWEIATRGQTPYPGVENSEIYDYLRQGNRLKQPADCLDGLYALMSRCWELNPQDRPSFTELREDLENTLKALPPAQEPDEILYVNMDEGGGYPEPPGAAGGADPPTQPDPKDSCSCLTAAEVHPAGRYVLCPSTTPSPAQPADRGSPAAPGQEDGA
Chain of CDKL5 (O76039 whole entry): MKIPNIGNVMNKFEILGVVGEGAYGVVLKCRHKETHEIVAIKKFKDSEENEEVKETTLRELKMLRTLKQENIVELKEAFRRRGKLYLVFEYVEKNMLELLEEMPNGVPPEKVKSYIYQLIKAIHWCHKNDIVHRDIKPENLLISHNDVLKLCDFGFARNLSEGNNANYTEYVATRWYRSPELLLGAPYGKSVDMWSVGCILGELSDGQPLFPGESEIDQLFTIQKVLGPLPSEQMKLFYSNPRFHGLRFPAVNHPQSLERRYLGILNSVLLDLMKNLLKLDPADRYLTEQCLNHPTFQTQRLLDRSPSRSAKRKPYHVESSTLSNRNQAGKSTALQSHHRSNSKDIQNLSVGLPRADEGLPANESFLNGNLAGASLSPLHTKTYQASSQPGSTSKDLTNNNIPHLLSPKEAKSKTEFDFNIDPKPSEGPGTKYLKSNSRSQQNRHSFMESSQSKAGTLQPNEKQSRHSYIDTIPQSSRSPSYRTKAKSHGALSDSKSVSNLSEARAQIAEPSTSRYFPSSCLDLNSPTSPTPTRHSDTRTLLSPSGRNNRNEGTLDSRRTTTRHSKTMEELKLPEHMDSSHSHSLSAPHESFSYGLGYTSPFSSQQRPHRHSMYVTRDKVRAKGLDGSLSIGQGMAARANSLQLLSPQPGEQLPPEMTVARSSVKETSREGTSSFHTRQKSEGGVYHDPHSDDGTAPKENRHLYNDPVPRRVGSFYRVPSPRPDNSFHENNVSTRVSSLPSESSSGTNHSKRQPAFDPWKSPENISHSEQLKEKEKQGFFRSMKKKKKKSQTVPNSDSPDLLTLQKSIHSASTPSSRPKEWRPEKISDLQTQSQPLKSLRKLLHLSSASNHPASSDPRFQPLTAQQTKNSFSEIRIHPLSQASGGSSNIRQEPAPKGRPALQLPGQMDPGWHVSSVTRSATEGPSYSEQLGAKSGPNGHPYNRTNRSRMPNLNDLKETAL
Chain of AKT3 (Q9Y243 whole entry): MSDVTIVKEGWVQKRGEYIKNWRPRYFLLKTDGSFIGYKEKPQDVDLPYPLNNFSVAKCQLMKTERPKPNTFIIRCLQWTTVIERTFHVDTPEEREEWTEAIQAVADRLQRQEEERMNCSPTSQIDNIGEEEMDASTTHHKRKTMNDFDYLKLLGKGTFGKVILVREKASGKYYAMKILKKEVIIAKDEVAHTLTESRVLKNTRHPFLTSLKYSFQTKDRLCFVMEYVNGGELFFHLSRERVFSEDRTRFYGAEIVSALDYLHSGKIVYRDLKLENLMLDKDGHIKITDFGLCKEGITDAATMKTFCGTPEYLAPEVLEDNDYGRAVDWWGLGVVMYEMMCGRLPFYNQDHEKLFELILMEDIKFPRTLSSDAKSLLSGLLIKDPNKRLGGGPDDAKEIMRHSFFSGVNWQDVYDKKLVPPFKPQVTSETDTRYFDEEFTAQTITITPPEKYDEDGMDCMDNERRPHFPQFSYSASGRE
Chain of NEK2 (P51955 whole entry): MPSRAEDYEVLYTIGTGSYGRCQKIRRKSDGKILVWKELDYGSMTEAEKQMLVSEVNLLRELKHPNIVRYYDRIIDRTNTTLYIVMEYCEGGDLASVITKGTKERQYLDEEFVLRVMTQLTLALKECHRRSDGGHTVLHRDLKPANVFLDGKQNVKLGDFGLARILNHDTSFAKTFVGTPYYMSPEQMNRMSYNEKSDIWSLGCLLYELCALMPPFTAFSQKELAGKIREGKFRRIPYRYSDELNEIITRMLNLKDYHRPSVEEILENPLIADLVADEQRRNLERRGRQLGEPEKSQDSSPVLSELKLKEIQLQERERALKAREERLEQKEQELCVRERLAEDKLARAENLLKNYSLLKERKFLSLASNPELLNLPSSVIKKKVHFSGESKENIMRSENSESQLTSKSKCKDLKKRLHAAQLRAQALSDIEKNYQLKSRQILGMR
T8 sequence (Q05397 whole entry): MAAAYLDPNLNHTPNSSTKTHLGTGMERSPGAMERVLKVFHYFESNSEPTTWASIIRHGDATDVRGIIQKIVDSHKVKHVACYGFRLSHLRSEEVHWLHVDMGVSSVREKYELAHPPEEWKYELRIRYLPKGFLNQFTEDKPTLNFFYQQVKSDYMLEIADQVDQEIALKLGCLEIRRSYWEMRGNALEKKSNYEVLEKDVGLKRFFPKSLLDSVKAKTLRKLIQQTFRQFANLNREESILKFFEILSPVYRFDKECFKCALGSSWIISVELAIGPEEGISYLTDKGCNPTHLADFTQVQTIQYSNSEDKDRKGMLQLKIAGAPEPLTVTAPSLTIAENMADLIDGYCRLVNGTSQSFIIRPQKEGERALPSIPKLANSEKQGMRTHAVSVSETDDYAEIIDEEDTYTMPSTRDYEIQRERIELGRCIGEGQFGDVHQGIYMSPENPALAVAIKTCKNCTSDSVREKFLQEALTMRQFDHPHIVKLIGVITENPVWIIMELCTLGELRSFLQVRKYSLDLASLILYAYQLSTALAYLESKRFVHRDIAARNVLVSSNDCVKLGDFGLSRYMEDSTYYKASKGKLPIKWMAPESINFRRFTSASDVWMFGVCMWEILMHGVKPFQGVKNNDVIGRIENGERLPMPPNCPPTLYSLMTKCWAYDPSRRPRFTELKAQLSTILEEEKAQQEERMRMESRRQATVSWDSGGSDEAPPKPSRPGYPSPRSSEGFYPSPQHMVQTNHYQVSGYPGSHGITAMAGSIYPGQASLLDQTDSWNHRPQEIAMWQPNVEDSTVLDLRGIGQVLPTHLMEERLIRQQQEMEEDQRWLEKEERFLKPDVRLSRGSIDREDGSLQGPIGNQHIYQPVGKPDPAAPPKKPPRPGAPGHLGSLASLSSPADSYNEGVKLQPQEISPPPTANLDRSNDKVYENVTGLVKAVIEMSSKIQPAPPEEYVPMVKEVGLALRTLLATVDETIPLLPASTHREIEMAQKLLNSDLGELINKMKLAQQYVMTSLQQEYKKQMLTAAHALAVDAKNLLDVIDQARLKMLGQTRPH
T6 sequence (Q16584 whole entry): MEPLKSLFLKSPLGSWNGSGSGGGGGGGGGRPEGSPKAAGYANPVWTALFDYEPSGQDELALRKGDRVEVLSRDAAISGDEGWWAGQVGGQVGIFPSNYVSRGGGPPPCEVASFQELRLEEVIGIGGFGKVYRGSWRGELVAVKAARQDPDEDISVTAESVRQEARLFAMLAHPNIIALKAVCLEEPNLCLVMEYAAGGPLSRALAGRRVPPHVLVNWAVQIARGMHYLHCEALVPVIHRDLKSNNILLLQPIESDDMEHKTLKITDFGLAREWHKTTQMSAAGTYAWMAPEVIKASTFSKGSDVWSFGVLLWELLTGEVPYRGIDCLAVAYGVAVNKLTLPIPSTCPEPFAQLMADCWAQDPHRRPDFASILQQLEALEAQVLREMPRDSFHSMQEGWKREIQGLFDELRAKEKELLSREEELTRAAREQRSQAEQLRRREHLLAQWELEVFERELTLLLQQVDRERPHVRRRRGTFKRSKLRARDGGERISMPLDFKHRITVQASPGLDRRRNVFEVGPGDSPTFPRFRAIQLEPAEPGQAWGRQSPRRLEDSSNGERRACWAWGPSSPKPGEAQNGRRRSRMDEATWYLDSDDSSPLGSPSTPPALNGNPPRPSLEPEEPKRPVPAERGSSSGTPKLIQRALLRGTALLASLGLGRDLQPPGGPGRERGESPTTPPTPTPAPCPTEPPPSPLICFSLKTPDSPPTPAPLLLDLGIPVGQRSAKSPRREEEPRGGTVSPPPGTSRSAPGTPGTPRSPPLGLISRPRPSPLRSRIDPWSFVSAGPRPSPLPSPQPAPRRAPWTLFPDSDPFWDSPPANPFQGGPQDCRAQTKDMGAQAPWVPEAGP
Chain of CDK7 (P50613 whole entry): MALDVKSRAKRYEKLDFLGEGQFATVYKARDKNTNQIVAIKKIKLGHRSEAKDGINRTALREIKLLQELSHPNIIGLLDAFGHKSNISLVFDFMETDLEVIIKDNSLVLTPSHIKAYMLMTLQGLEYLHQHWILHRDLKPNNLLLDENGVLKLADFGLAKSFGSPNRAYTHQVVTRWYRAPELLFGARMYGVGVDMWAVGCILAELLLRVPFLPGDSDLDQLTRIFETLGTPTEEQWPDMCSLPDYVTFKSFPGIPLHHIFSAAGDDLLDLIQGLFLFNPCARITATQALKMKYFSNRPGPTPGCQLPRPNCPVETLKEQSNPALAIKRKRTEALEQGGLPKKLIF

SMILES: Cc1cnc2nc1Nc1cccc(c1)COCc1cc(ccc1OCCN1CCCC1)N2 [Compound 1]
- remaining binding at 0.1 µM (BRAF(V600E)): 93%
- remaining binding at 0.1 µM (p38-alpha): 100%
- remaining binding at 0.1 µM (CDC2L1): 96%
- remaining binding at 0.1 µM (MAP4K4): 82%
- remaining binding at 0.1 µM (CDK7): 77%
- remaining binding at 0.1 µM (BRK): 98%
- remaining binding at 0.1 µM (MEK6): 100%
- remaining binding at 0.1 µM (PRKCE): 98%
- remaining binding at 0.1 µM (FGFR1): 89%
- remaining binding at 0.1 µM (WNK1): 90%
- remaining binding at 0.1 µM (OSR1): 66%
- remaining binding at 0.1 µM (WNK3): 95%
- remaining binding at 0.1 µM (STK16): 18%
- remaining binding at 0.1 µM (AKT3): 100%
- remaining binding at 0.1 µM (MLK3): 94%
- remaining binding at 0.1 µM (NDR2): 92%
- remaining binding at 0.1 µM (FAK): 95%
- remaining binding at 0.1 µM (NEK4): 79%
- remaining binding at 0.1 µM (CDK11): 96%
- remaining binding at 0.1 µM (PIM2): 100%
- remaining binding at 0.1 µM (TBK1): 76%
- remaining binding at 0.1 µM (AXL): 90%
- remaining binding at 0.1 µM (CDKL5): 100%
- remaining binding at 0.1 µM (LATS2): 100%
- remaining binding at 0.1 µM (NEK2): 83%
